The subject of data set [1] is JJN-3. Kind of data set: Down regulation of IRF4 protein expression in human JJN-3 cells at 10 to 50 uM after 48 hrs by immunoblotting analysis. The following applies: dose 10-50 µM. In kind it is functional, cell-based. For orientation: Immunoblotting shows a protein as a band on a membrane.
The subject of data set [2] is JJN-3. The data set can be described thus: Down regulation of IKZF1 protein expression in human JJN-3 cells at 10 to 50 uM after 48 hrs by immunoblotting analysis. It is filed as functional, cell-based. The following applies: dose 10-50 µM.
Data set [3] deals with MM.1R. The data set can be described thus: Down regulation of IKZF1 protein expression in human MM1.R cells at 10 to 50 uM after 48 hrs by immunoblotting analysis. As to conditions: dose 10-50 µM. It is filed as functional, cell-based.
Data set [4] is described as follows: Induction of apoptosis in human KMM-1 cells assessed as apoptotic cells at 10 uM after 72 hrs by Annexin V/PropidiumIodide staining based flow cytometric analysis relative to control. It is filed as functional.
A short description of data set [5]: Growth inhibition of human MM1.R cells at 100 uM after 48 hrs by PrestoBlue cell viability assay relative to control. It is filed as functional. As to conditions: MM.1R, read-out: GI.
Data set [6] relates to MM.1R. Kind of data set: Down regulation of IKZF3 protein expression in human MM1.R cells at 10 to 50 uM after 48 hrs by immunoblotting analysis. In kind it is functional, cell-based. The following applies: dose 10-50 µM.
A short description of data set [7]: Induction of apoptosis in human KMM-1 cells assessed as late apoptotic cells at 10 uM after 72 hrs by Annexin V/PropidiumIodide staining based flow cytometric analysis (reference value: 4 +/- 0.5%). It is filed as functional. Background: Flow cytometry measures light scatter and fluorescence of single cells or particles in a stream.
The nature of data set [8]: Induction of apoptosis in human KMM-1 cells assessed as early apoptotic cells at 10 uM after 72 hrs by Annexin V/PropidiumIodide staining based flow cytometric analysis (reference value: 1 +/- 0.4%). It is filed as functional.
Data set [9] is described as follows: Induction of apoptosis in human KMM-1 cells assessed as viable cells at 10 uM after 72 hrs by Annexin V/PropidiumIodide staining based flow cytometric analysis (reference value: 87 +/- 1%). As to conditions: read-out: Activity. It is filed as functional.
Data set [10] in a line: Induction of apoptosis in human KMM-1 cells assessed as necrotic cells at 10 uM after 72 hrs by Annexin V/PropidiumIodide staining based flow cytometric analysis (reference value: 8 +/-1%). In kind it is functional.
The nature of data set [11]: Growth inhibition of human KMM-1 cells at 10 to 100 uM after 72 hrs by PrestoBlue cell viability assay relative to control. In kind it is functional. The following applies: dose 10-100 µM.
For a further data set, the system named is B cell. Kind of data set: Cytotoxicity against human naive B cells assessed as reduction in cll viability at 10 uM after 48 hrs by PrestoBlue cell viability assay. It is filed as cell-based.
Data set [12] can be described thus: Cytotoxicity against human Mononuclear cells assessed as reduction in cll viability at 10 uM after 48 hrs by PrestoBlue cell viability assay. In kind it is cell-based. The following applies: mononuclear cell line.
Data set [13] relates to MM.1R. The data set can be described thus: Down regulation of IRF4 protein expression in human MM1.R cells at 10 to 50 uM after 48 hrs by immunoblotting analysis. In kind it is functional, cell-based. As to conditions: dose 10-50 µM.
Data set [14] can be described thus: Induction of apoptosis in human MM1.R cells assessed as apoptotic cells at 10 uM after 72 hrs by Annexin V/PropidiumIodide staining based flow cytometric analysis relative to control. It is filed as functional, MM.1R.
Data set [15] in a line: Growth inhibition of human KMM-1 cells at 10 uM after 48 hrs by PrestoBlue cell viability assay relative to control. It is filed as functional. As to conditions: read-out: GI.

Activity calls are given as the source filed them. The rule behind the calls is not given here.

Turning to `Nc1cccc2c1CN(C1CCC(=O)NC1=O)C2=O` (stereo unspecified) [LENALIDOMIDE], the outcome with JJN-3 [1], in the data set on JJN-3 [2] and in the data set with MM.1R [3] was Active. Besides, the Activity in [4] is listed as 17.4%; in data set [7], 6%; in [8] it was 4%; in data set [10], 12%; in the data set on B cell it was “Non-Toxic”; in data set [12] it was “Non-Toxic”. The Activity in [14] is reported as 46%. In addition, the inhibition of growth at 100 µM in data set [5] was 47%. The result with MM.1R [6] and with MM.1R [13] was inactive. Further, the viability at 10 µM in data set [9] amounted to 78%. Besides, the “growth inhibition (GI)” value in data set [11] was greater than 25%. Besides, in [15], the inhibition of growth at 10 µM was found to be 7.5%.

The values are drawn from ChEMBL document CHEMBL4715865, “Antimyeloma Potential of Caffeic Acid Phenethyl Ester and Its Analogues through Sp1 Mediated Downregulation of IKZF1-IRF4-MYC Axis” (J Nat Prod, 2020).
